Measurements from US12144819B2, “Pharmaceutical composition and use” (SpineThera, priority 2012, dated 2024).

Key:
[1] = In-vitro elution of the API from the microparticles in PBS; format: physicochemical
Experimental: In-vitro elution of the API from the microparticles can be determined by adding a known amount of the microparticles to 5 mL phosphate buffered saline (PBS) solution at a pH 7.4, and maintaining a constant temperature of 37° C. At selected time intervals, a 2 mL aliquot can be withdrawn through a 0.4 μm filter for analysis; the amount of the aliquot withdrawn can be replenished with an equal amount of preheated PBS. The concentration of the API in the aliquot can be determined according to known methods such as HPLC. Sampling intervals can be adjusted to maintain drug concentration below sink conditions in the test vials.

[2] = Epidural administration in canine subjects using fluoroscopically-guided injection; format: in vivo, beagles; conditions: for drug released in-vivo (elution profile): procedure A1 microparticles
From the text: This exemplary approach is a modified version of that described by Cohen (vide supra). Male and female beagles can be acclimated and subjected to baseline neurologic and clinical chemistry examinations. Prior to treatment dogs can be anesthetized with propofol. The injection site can be shaved, and a 19-gauge epidural Touhy needle can be inserted at the L6-7 or L7-S1 interspace. A 22-gauge catheter can be threaded 8-10 cm to approximately the L2-L3 level. The position of the catheter can be verified by injection of contrast media under fluoroscopy. Two (2) mL of an aqueous suspension of microparticles, prepared according to procedure A1 above, can be injected over a period of about 2 minutes. After about 10 minutes the catheter can be removed. Before and after surgery, subject baseline measurements can be obtained, including, for example, temperature and specific behavioral measures (pain tolerance, reflex, mobility, etc.). Before injection, and every 2 days after injection for 84 days, heart rate, blood pressure in the tail, spinal reflexes, sensory and pain responses, proprioception, gait and movement, cranial nerve function, and fundoscopic examination data can be recorded to observe the safety of the injected pharmaceutical composition. Blood samples can be collected prior to injection, then at 1, 2, 4, 8, 24, and 72 hour intervals after injection, and every 7 days thereafter to analyze for the pharmaceutical agent and its metabolized forms. At scheduled intervals, necropsy and histopathology can be performed as described by Cohen, vide supra, in a sub-set of animals.
Without wishing to be bound by theory, pharmaceutical compositions of the type described herein are not expected to elicit any significant or appreciable degree of inflammatory response or cause necrosis. Histological examination may reveal the microparticles to be localized and agglomerated within the epidural space at the site of injection with no evidence of the presence of the injection vehicle after 2 about days. Contents of the treated epidural pocket can be recovered by dissection. The injected microparticles can be isolated from epidural tissue and assayed for drug concentration to determine an in-vivo elution profile. It can be reasonably expected that dexamethasone acetate will be released continuously over 12 weeks, with about 20% of the drug released in 3 days, 50% in 25 days, and 80% in 70 days, with complete microparticle polymer degradation in about 16 weeks.

For “9 alpha-fluoro-11-beta, 17-alpha, 21-trihydroxy-16 alpha-methylpregna-1,4-diene-3,20-dione 21-acetate [dexamethasone acetate]”, the “duration of continuous release in-vitro” value [1] was 12 weeks, the drug released in-vitro ([1]; in 3 days) was “about 10%” and the drug released in-vitro ([1]; in 25 days) was ~25%. For the same substance, the drug released in-vitro ([1]; in 70 days) was ~40%, the “duration of continuous release in-vivo” value [2] was 12 weeks and the “time to complete microparticle polymer degradation” value [2] was “about 16 weeks”. The “drug released in-vivo (elution profile)” value ([2]; in 3 days) was “about 20%”, the “drug released in-vivo (elution profile)” value ([2]; in 25 days) was ~50% and the “drug released in-vivo (elution profile)” value ([2]; in 70 days) was ~80%.
